Values after ≈ are worked out from the molar mass of the structure shown.
Tests used:
[1] = tested on: cryopreserved intestinal mucosa isolated from human duodenum, jejunum, and ileum; assay: in vitro; conditions: for IC50: Homo sapiens, read-out: IC50 (viability by cellular ATP contents), range over regions, duodenum, jejunum, and ileum of Donor 1
Description: (§1) The cryopreserved vials of the isolated intestinal mucosa comprising villi were removed from liquid nitrogen storage and thawed in a 37° C. water bath for approximately 2 min. The contents of each individual vial were decanted into a 50 ml conical tube containing Cryopreserved Enterocyte Recovery Medium, (In Vitro ADMET Laboratories, Columbia, Md.) that was pre-warmed in a 37° C. water bath. The thawed in vitro reagent was recovered by centrifugation at 100×g for 10 min at room temperature. After centrifugation, the supernatant was removed by decanting. A volume of 5 mL of 4° C. Hepatocyte/Enterocyte Incubation Medium, (In Vitro ADMET Laboratories, Columbia, Md.) was added to the intact pellet of enterocytes at the bottom of the conical tube followed by briskly re-pipetting 5 times with a P1000 micropipet to create an even suspension of the intestinal mucosal fragments.
(§2) In vitro cytotoxicity evaluation with cryopreserved intestinal mucosa was performed in 96-well plates. After recovery from cryopreservation as described above, the CHIM pellet was resuspended in 5 mL of Hepatocyte Incubation Medium (IVAL, Columbia, Md.). […] The cryopreserved intestinal mucosa cultures were then incubated in a CO2 cell culture incubator kept at 37° C. in a highly humidified atmosphere of 5% CO2. After an incubation duration of 24 hrs., cell viability was determined based on cellular ATP contents as previously described.
(§3) Data are presented as mean and standard deviation of triplicate incubations derived using the Microsoft Excel 6.0 software. Statistical analysis was performed using student's t-test with the Microsoft Excel 6.0 software, with the probability of p<0.05 to be considered statistically significant. Specific activity (pmol/min/mg protein) of each drug metabolizing enzyme pathway was determined by dividing the total metabolite formed by the incubation time and normalized to protein contents.

[2] = in vitro; conditions: human, IC50 (cytotoxicity)
Description: as §1, §2, §3

[3] = tested on: CYP24A1 mRNA; assay: Induction of CYP24A1 transcription in cryopreserved isolated intestinal mucosa (RT-PCR); format: cell-based, human; conditions: 24-hr treatment, dose dependent
Description: Gene transcription in the intestinal mucosa was quantified based on reverse transcription-real time PCR (RT-PCR) using the 7500 Fast Real-Time PCR system (Applied Biosystems, Foster City, Calif.). Total RNA was extracted using the mini RNeasy kit (QIAGEN, www.qiagen.com) according to instructions provided by the manufacturer for isolation of total RNA from the intestinal mucosa. At first, reverse transcription (RT) was performed with approximately 200 ng of isolated RNA using the High Capacity cDNA Reverse Transcription Kit (Thermo Fisher Scientific Inc., www.thermofisher.com). Subsequently, quantitative PCR analysis was performed on RT reactions using gene specific primer/probe sets and the Taqman Fast Universal PCR Master Mix (Thermo Fisher). The relative quantity of the target gene was compared with that of the reference transcription of […] (GAPDH) as determined by the […] and as previously described (Fahmi, Kish et al. 2010).
P450 induction in cryopreserved metabolically competent isolated intestinal mucosa was evaluated based on gene transcription. Following a 24-hr treatment period, dose dependent induction of CYP3A4 mRNA by rifampin and 25-hydroxyD3; and, CYP24A1 mRNA by 25-hydroxyD3 were observed. For CYP3A4, the maximal fold of induction was approximately 3-fold for both inducers. Data shown for 25-hydroxyD3 in FIG. 10C.

[4] = tested on: cryopreserved human intestinal mucosa; assay: Drug-induced enterotoxicity in cryopreserved human intestinal mucosa, viability by cellular ATP contents (Example 6); conditions: duodenum, jejunum and ileum, three donors, FIGS. 6 and 7
Description: A vial of cryopreserved intestinal mucosa was thawed in a 37 C deg. water bath and added to 50 mL of culture medium (Universal Cryopreservation Plating Medium, In Vitro ADMET Laboratories, Columbia, Md.). The recovered mucosa pellet was suspended in a protein free incubation medium (Hepatocyte Enterocyte Incubation Medium, In Vitro ADMET Laboratories, Columbia, Md.). […] The plate was incubated at 37 deg. C. for 24 hrs after which cell viability was determined by the quantification of cellular ATP contents (ATPLite, Perkin Elmers).

CC(=O)Nc1ccc(O)cc1 [APAP, acetaminophen]
cytotoxicity in cryopreserved intestinal mucosa (in words) [1]: Dose-dependent cytotoxicity
IC50 [1]: 920 to 1180 µg/mL (≈ 6090 to 7810 µM)
IC50 at 24 h [2]: 2250 µg/mL (≈ 14900 µM)

C=C1/C(=C\C=C2/CCC[C@]3(C)[C@@H]([C@H](C)CCCC(C)(C)O)CC[C@@H]23)C[C@@H](O)C[C@@H]1O [1,25(OH)D3, 1,25-dihydroxyvitamin D3]
induction of CYP24A1 transcription (mRNA) [3]: approximately 300 fold
induction of CYP24A1 transcription (mRNA) ([3]; listed as 25-hydroxyD3): Approximately 300 fold
induction of CYP24A1 transcription (mRNA) ([3]; listed as vitamin D3): approx. 300 fold

COc1ccc2cc([C@H](C)C(=O)O)ccc2c1 [Naproxen, naproxen]
IC50 [1]: 350 to 390 µg/mL (≈ 1520 to 1690 µM)
cytotoxicity in cryopreserved intestinal mucosa (in words) ([1]; three donors, 24 hrs): Dose-dependent cytotoxicity
IC50 at 24 h ([2]; Duodenum mucosa, 24 hrs, cellular ATP contents): 350 µg/mL (≈ 1520 µM)
IC50 at 24 h ([2]; Ileum mucosa, 24 hrs, cellular ATP contents): 360 µg/mL (≈ 1560 µM)
IC50 at 24 h ([2]; Jejunum mucosa, 24 hrs, cellular ATP contents): 390 µg/mL (≈ 1690 µM)
viability in isolated intestinal mucosa (in words) [4]: dose-dependent decrease in viability

Source: patent US20190293634A1, “ISOLATED INTESTINAL MUCOSA AND USES THEREOF” (priority 2018, published 2019)
